Patent US11612652B2, “Lipids as synthetic vectors to enhance antigen processing and presentation ex-vivo in dendritic cell therapy” (PDS Biotechnology Corporation, priority 2015, dated 2023)

Columns and labels:
[1] = tested on: THP-1 cells; assay: DQ-OVA uptake in human monocyte cell line, confocal microscopy and flow cytometry; format: cell-based; settings: DQ-OVA 10 μg/ml, R-DOTAP 25 μg/ml, 1 h at 37° C.
Procedure: To determine the effect of cationic lipids on human cells, a human monocyte cell line, THP-1 was used to assess DQ-OVA uptake ex-vivo. THP-1 is representative of human blood derived monocyte cells, the same cells that are used to produce DC from patients in ex vivo DC therapy approaches. THP-1 cells were incubated with DQ-OVA (10 μg/ml) in the presence (A, B) or absence (C, D) of R-DOTAP (25 μg/ml) for 1 h at 37° C. The same cell was imaged using a laser scanning confocal microscope and quantitated by measuring green versus red fluorescence by flow cytometry. […] Another striking observation from FIGS. 6A and B, is the accumulation of processed OVA in endocytic vesicles. It is well known that proteins in endocytic vesicles are efficiently incorporated into MHC class II molecules for stimulating CD4 T cells or shuttled into the cross-presentation pathway for presentation on MHC class I to CD8 T cells. Thus, cationic lipids facilitate protein uptake in a manner which maximally optimizes presentation of antigen onto both MHC class I and class II molecules, resulting in maximal stimulation of CD8 and CD4 T cells respectively.

[2] = tested on: mouse bone marrow derived dendritic cells (BMDCs); assay: Alexa Fluor 647-OVA uptake by BMDCs, flow cytometry; format: cell-based; settings: 50 μM cationic lipid, 20 μg/ml Alexa Fluor 647-OVA, 37° C., 10-60 minutes, versus 280 mM sucrose diluent
Procedure: In order to determine the effect of cationic lipids on the uptake of protein antigen, mouse bone marrow derived dendritic cells (BMDCs) were pulsed with Alexa Fluor®647-OVA conjugate and quantified ovalbumin uptake by BMDCs using flow cytometry. Briefly, 2×10^6 cells/ml BMDCs were incubated at 37° C. for 10-60 minutes in serum free RPMI 1640 cell culture media containing 20 μg/ml ovalbumin (Ovalbumin Alexa Fluor® 647 conjugate; life technologies, cat #034784) and 50 μM cationic lipid (RDOTAP) or 280 mM sucrose diluent. Cells were washed after pulsing to remove non-cell associated ovalbumin and fixed with 1% formaldehyde for flow cytometer analysis. The ovalbumin uptake was quantified using BD LSR II flow cytometer.

[3] = tested on: HPV16-specific CD8+ T-cells; assay: IFN-gamma ELISPOT of splenocytes after vaccination with KF18 HPV peptide formulations; format: in vivo, C57 black mice; settings: vaccinated Day 0 and Day 7, sacrificed Day 14
Procedure: C57 black mice were vaccinated with various formulations: […]
Group 1: KF18 HPV peptide ([…]) (SEQ ID NO: 4)
Group 2: KF18 HPV peptide+R-DOTAP liposomes
Group 3: KF18 HPV peptide+S-DOTAP liposomes
Group 4: KF18 peptide+MPL/Alum adjuvant
5 mice per group were injected with the various formulations. The mice were vaccinated on Day 0 and Day 7 and sacrificed on Day 14. The splenocytes were removed and ELISPOT studies performed. The splenocytes were stimulated with the peptide […] (RF9) (SEQ ID NO: 5), the HPV16 CD8+ T-cell epitope peptide recognized by the C57 mice. […] An additional example of this effect is observed with the cationic lipid DDA. […] However, it has been reported that in order to induce strong antigen-specific T-cell responses that DDA is used in combination with strong adjuvants (Brandt L. et al, ESAT-6 Subunit Vaccination against Mycobacterium tuberculosis, Infect Immun. 2000 February; 68(2): 791-795).

[4] = tested on: popliteal LN; assay: Homing of CFSE labeled adoptively transferred spleen cells with or without pertussis toxin; format: in vivo, B6 mice; settings: 16 h
Text: The primary objective of the current experiment was to utilize 5 mice to perform the study described in Example 7 and to visualize the homing of CFSE labeled adoptively transferred cells. The study included a population of cells that had been treated in vitro with pertussis toxin to inactivate chemokine receptors. Pertussis toxin and untreated cells were labeled with two different concentrations of CFSE so that they could be distinguished by flow cytometry. The lymphocytes should be induced to home to lymph nodes.
Spleen cells were prepared from a single B6 mouse and divided in half. Half of the cells were treated with Pertussis toxin 100 ng/ml for 1 hour at 37° C. and washed. The two cell populations were then labeled with CFSE at two different concentrations so they could be distinguished by flow cytometry, and mixed together. The mix (10^7 cells) was injected i.v. into the tail vein of 5 B6 mice. The mice were then anesthetized and injected in the footpad with either sucrose (right footpad) or R-DOTAP (left footpad, 50 μl, 600 nmoles).
After 16 h, the mice were sacrificed and the popliteal LN and spleens harvested. The total cells recovered from left and right nodes from each mouse were counted.

[5] = tested on: popliteal lymph nodes; assay: Influx of T-cells and total lymphocytes into draining lymph nodes after foot pad injection; format: in vivo, mice
Procedure: 12 mM R-DOTAP or sucrose as control were injected into the right and eft foot pad respectively of mice and the influx of T-cells and total lymphocytes into the draining lymph nodes were quantified by flow cytometry. In this experiment, 15 hours after vaccination the popliteal lymph nodes were removed and analysis performed. […] Five mice were used per study.

[6] = tested on: BMDC (CD11c positive cells); assay: DQ-OVA uptake and processing by BMDC, flow cytometry; format: cell-based, mouse
Procedure: In order to determine the effects of cationic lipids on antigen uptake and processing by dendritic cells ex-vivo, a fluorescent ovalbumin protein called DQ-OVA was used. DQ-OVA is non-fluorescent when intact, but emits both red and green fluorescence when the protein is degraded. BMDC were incubated at 37° C. or 4° C. for 1 hr with DQ-OVA alone, or DQ-OVA mixed with different concentrations of the cationic lipid DOTAP. The cells were then washed, fixed, and stained with fluorescent antibodies to CD11c, a marker for dendritic cells. Cells were then analyzed on an LSRII flow cytometer in both red and green fluorescent channels.
This represents the well-known mannose receptor mediated uptake of OVA by DC. […] Graphical representation of the fluorescent uptake of DQ-OVA into BMDC measured by flow cytometry.
This uptake and processing was inhibited at 4° C. confirming that active cytoskeletal rearrangements are required for this type of uptake. […] The effect of R-DOTAP was concentration dependent with 50 uM showing the greatest effect. To determine if the R-DOTAP enhancement of protein uptake is cell dependent, a mouse epithelial cell line was incubated with DQ-OVA under identical conditions as the BMDC. […] Further, they indicate that this enhancement is selective for dendritic cells and not other, non-antigen presenting cell types.
In order to determine whether lipid adjuvants could mediate the same effect as R-DOTAP, BMDC were incubated with DQ-OVA in media alone or with R-DOTAP as described for FIG. 1. In addition, BMDC were incubated under identical conditions with the potent lipid adjuvant lipopolysaccharide (LPS). Mouse bone marrow DC were incubated in the presence of fluorescent DQ-OVA for one hour at either 37° C. or 4° C./azide in the presence of 25 μM DOTAP nanoparticles, 10 μg/ml LPS or media alone, and analyzed by flow cytometry. […] Monophorphoryl lipid-A (MPL) is a lower toxicity derivative of LPS that is now an FDA approved adjuvant in several vaccines.

## CCCCCCCC/C=C\CCCCCCCC(=O)OCC(C[N+](C)(C)C)OC(=O)CCCCCCC/C=C\CCCCCCCC (centres unmarked) [R-DOTAP, 1,2-dioleoyl-3-trimethylammonium propane]
[1]
  DQ-OVA uptake in THP-1 cells: dramatically enhanced the uptake of DQ-OVA in THP-1 cells
[2]
  ovalbumin (protein) uptake by BMDC, fluorescence intensity: significantly increased the protein uptake by BMDC at all time points measured
[3]
  HPV-specific CD8+ T-cell response (ELISPOT, RF9 stimulation): effective in inducing strong HPV-specific CD8+ T-cell responses
[4]; R-DOTAP footpad 50 μl, 600 nmoles, untreated cells
  infiltration of transferred CFSE labeled lymphocytes into lymph node: transferred CFSE labeled lymphocytes also infiltrated the lymph node upon R-DOTAP vaccination
[4]; cells treated with Pertussis toxin 100 ng/ml
  infiltration of pertussis toxin treated CFSE labeled cells into lymph node: this did not occur with the pertussis treated cells
[5]; 12 mM R-DOTAP in foot pad, 15 hours after vaccination, versus sucrose
  infiltration of T-cells into the draining lymph node: induced significant infiltration of T-cells into the lymph node
[5]; 5 hours, 16 hours, 3 days and 4 days
  lymphocyte infiltration into the lymph nodes over time: lymphocyte infiltration into the lymph nodes was seen to increase over the 4-day period
[6]; 4° C., 1 hr
  DQ-OVA uptake at 4° C.: Significant uptake was even seen at 4 °C
[6]; 37° C., 1 hr, versus DQ-OVA alone
  DQ-OVA uptake and processing, mean green fluorescence of CD11c positive cells: doubling of fluorescence
[6]; concentration dependent effect
  concentration showing the greatest effect on DQ-OVA uptake: 50 µM
[6]; one hour, 25 μM DOTAP nanoparticles, 10 μg/ml LPS or media alone
  enhancement of DQ-OVA uptake and processing compared with known adjuvants (red fluorescence): greatly enhanced
